Experimental data from US20130261130A1, “NEUROTRYPSIN INHIBITORS” (priority 2010, published 2013).
Read-outs that look alike come from different tables or passages of the source.

Tests used:
Format in all cases: biochemical
[1] = biological target: T1, tPA (Homo sapiens, UniProt P00750); assay: Determination of the IC50 for various proteases: tPA; conditions: Mean ± SD
T1 construct: purchased American diagnostic
Protocol: (§1) A 6 mM solution of the test compound in DMSO was prepared. In a V-bottom micro plate the 6 mM compound solution was diluted 6 times in DMSO to obtain a concentration row with the following concentrations: 6 mM, 1.8 mM, 540 μM, 162 μM, 48.8 μM, 14.4 μM, and 4 μM. From this DMSO master plate 1:20 dilutions in 10 mM MOPS pH 8.3 were prepared to obtain solutions of 300, 90, 27, 8.1, 2.44, 0.72 and 0.22 μM in MOPS buffer and 5% DMSO.
(§2) 100 μl of this solution were pipetted into a flat bottom 96 well microplate and placed into a Tecan infinite 200 plate reader. Before measurement, 50 μl of protease solution and, subsequently 50 μl substrate solution were added by the machine. The liberation of free para nitroanilide was detected at 405 nm. The protease solution was freshly prepared by diluting to the desired concentration from a stock solution in 60 mM MOPS; 600 mM NaCl; 20 mM CaCl2; 10% DMSO; 0.4% PEG 6000 pH 8.3. The substrate solution was prepared by dissolving the solid substrate in an adequate amount of water to get the desired concentrations. The used protease and substrate solutions are given below:
(§3) All enzymes except trypsin were from human origin (American diagnostic). Trypsin is hog trypsin (Sigma Aldrich). Substrates were purchased from Chromogenix. […]

[2] = biological target: T2, human neurotrypsin (Homo sapiens, UniProt P56730); assay: Determination of IC50 for human neurotrypsin
T2 sequence (P56730 21-875): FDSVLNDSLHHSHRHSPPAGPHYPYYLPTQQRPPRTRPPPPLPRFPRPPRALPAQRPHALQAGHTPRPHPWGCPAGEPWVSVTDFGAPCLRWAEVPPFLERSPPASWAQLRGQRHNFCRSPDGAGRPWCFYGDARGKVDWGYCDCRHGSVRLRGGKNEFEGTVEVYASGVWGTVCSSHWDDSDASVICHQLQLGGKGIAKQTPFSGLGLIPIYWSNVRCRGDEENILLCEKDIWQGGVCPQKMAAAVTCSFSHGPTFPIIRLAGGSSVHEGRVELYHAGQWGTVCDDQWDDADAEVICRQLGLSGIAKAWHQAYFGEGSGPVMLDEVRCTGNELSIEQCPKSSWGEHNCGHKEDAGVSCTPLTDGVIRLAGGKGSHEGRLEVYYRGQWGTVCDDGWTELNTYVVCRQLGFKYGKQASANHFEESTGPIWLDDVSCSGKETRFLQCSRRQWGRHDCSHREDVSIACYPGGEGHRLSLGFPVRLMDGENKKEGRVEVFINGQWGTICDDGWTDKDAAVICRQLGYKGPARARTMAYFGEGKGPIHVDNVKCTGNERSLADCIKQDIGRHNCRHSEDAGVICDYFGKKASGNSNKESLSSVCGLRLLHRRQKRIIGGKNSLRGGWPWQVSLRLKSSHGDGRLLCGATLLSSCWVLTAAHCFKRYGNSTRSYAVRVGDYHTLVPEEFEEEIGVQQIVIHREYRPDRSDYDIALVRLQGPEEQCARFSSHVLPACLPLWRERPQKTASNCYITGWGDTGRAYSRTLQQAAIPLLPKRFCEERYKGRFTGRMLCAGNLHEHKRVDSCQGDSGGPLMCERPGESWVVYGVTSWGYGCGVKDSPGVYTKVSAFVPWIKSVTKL
Protocol: Assessment of the potency of compounds of examples 1-311 in inhibiting the enzymatic activity of human neurotrypsin was performed according to the method described in patent application WO 2006/1103261

[3] = biological target: T3, uPA (Homo sapiens, UniProt P00749); assay: Determination of the IC50 for various proteases: uPA; conditions: Mean ± SD
T3 construct: purchased American diagnostic
Protocol: as §1, §2, §3

[4] = biological target: T4, Trypsin (hog trypsin) (Sus scrofa, UniProt P00761); assay: Determination of the IC50 for various proteases: trypsin; conditions: Mean ± SD
T4 construct: Trypsin is hog trypsin (Sigma Aldrich); purchased Sigma Aldrich
T4 sequence (P00761 9-231): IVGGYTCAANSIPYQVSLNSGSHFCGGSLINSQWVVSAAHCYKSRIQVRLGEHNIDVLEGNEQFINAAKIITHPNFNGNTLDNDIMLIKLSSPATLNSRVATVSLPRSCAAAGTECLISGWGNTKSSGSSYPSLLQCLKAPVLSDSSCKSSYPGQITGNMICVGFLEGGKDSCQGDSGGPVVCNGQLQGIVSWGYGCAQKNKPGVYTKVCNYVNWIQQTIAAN
Protocol: as §1, §2, §3

[5] = biological target: T5, Thrombin (Homo sapiens, UniProt P00734); assay: Determination of the IC50 for various proteases: thrombin; conditions: Mean ± SD
T5 construct: Thrombin; purchased American diagnostic
Protocol: as §1, §2, §3

[6] = biological target: Kallikrein (Homo sapiens, UniProt P03952); assay: Determination of the IC50 for various proteases: kallikrein; conditions: Mean ± SD
Chain of Kallikrein (P03952 whole entry): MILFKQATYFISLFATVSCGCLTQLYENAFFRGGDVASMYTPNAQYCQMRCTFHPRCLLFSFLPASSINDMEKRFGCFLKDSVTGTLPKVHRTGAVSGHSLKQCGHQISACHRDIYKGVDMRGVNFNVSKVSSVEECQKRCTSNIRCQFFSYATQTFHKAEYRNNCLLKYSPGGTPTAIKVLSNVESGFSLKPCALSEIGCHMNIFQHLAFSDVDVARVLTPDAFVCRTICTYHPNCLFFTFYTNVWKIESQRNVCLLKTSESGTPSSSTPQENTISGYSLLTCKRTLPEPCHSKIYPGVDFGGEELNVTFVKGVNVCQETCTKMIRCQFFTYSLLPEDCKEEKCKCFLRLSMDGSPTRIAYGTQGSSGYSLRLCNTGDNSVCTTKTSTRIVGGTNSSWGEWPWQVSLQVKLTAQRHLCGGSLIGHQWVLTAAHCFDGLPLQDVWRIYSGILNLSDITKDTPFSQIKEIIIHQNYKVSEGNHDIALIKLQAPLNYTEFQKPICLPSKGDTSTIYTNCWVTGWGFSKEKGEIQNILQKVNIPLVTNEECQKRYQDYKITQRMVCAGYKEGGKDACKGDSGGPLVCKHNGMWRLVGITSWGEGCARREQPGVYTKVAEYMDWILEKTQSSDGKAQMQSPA
Protocol: as §1, §2, §3

[7] = biological target: T6, Plasmin (Homo sapiens, UniProt P00747); assay: Determination of the IC50 for various proteases: plasmin; conditions: Mean ± SD
T6 construct: Plasmin; purchased American diagnostic
T6 sequence (P00747 581-810 limits assumed): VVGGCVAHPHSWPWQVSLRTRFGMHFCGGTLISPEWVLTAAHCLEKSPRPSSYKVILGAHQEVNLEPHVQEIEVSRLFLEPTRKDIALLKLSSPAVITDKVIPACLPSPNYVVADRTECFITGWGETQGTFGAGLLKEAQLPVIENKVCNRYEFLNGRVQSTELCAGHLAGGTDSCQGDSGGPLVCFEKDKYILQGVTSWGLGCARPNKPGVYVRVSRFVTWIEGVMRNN
T6 sequence (P00747 97-580 partner limits assumed): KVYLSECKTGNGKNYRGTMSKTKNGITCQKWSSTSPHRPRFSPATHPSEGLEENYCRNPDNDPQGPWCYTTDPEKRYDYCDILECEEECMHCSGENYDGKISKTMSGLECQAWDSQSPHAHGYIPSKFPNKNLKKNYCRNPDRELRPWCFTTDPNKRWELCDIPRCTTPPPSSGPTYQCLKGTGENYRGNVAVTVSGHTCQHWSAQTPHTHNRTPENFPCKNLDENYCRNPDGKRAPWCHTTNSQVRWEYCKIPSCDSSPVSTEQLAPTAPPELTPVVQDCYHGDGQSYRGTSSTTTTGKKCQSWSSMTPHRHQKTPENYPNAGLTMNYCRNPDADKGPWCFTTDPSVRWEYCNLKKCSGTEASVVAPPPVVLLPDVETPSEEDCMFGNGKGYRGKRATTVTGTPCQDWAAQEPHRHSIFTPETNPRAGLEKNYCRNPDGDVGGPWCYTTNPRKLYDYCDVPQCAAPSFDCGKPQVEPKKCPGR
Protocol: as §1, §2, §3

[8] = biological target: T7, Factor Xa (Homo sapiens, UniProt P00742); assay: Determination of the IC50 for various proteases: Factor Xa; conditions: Mean ± SD
T7 construct: Factor Xa; purchased American diagnostic
T7 sequence (P00742 235-488 limits assumed): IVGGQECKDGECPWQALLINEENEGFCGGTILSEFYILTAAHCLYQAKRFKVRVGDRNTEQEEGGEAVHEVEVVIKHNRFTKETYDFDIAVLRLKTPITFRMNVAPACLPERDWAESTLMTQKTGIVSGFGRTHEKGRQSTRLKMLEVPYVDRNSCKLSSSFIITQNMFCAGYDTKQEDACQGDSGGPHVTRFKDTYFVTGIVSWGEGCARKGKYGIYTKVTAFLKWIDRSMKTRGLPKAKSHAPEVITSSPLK
T7 sequence (P00742 41-179 partner limits assumed): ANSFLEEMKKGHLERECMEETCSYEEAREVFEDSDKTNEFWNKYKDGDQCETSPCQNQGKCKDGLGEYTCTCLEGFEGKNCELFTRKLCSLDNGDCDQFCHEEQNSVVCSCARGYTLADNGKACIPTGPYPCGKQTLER
Protocol: as §1, §2, §3

T1 sequence (P00750 36-562): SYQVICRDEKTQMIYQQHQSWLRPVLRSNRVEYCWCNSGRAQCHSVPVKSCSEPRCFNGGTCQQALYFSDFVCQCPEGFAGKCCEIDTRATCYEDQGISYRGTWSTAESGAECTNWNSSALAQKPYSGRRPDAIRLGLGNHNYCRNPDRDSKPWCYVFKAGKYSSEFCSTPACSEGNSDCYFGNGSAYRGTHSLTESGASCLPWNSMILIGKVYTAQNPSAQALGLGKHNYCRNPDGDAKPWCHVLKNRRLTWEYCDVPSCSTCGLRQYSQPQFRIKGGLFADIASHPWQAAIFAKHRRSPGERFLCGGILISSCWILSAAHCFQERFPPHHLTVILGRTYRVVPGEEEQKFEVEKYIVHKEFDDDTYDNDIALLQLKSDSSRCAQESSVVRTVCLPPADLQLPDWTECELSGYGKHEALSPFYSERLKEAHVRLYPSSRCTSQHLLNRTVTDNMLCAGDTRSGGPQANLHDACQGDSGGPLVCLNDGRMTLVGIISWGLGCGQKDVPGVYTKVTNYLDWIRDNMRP

## O=C(Nc1ccc(Cl)cc1)c1ccc(NC(=O)c2ccc(-c3nc4cc(Cl)c(Cl)cc4[nH]3)cc2)c(C(=O)O)c1 [Example 119]
[1]
  IC50: 47.1 ± 22.4 µM
[2]; Mean ± SD, read-out: IC50 Neurotrypsin
  IC50: 0.51 ± 0.16 µM
[2]; human neurotrypsin, method of WO 2006/1103261, read-out: Neurotrypsin IC50
  IC50: 0.4 µM
[3]
  IC50: > 40 µM
[4]
  IC50: > 150 µM
[5]
  IC50: 37.7 ± 25.2 µM
[6]
  IC50: 27.1 ± 9.2 µM
[7]
  IC50: 2.4 ± 1.6 µM
[8]
  IC50: 39.8 ± 33.3 µM
